≈ marks a conversion by molar mass, not a printed value.
Conditions: for aqueous solubility: pH 6.8

SMILES | MDR1-MDCK efflux ratio | intrinsic clearance, human liver microsomes [mL/min/kg] | intrinsic clearance, rat liver microsomes [mL/min/kg] | aqueous solubility [µg/mL] | fraction unbound, human plasma | fraction unbound, rat plasma
CC(C)c1cc(CN(C)Cc2c[nH]nc2-c2ccc(F)cc2)no1 | 1.01 | 325 | 1780 | 22.2 (≈ 67.8 µM) | – | –
Cn1cc(Br)cc1C(=O)N1CCc2nn[nH]c2C1 | – | ≤ 4.74 | 43.8 | – | – | –
CC(=O)N(c1ccc(C)cc1)c1nc(Cn2ccnc2)cs1 | 2.87 | 31.9 | 210 | 43.6 (≈ 140 µM) | – | –
COc1cccc2c1Oc1nc(-c3ccccc3)[nH]c(=S)c1C2 | – | – | – | 0.35 (≈ 1.09 µM) | – | –
Cc1cccc(Cl)c1-n1c(C)n[nH]c1=O | – | – | – | 16.1 (≈ 72.1 µM) | – | –
CN1N=C(SCc2ccc(Cl)cc2Cl)Sc2c1cnn(C)c2=O | – | 137 | 1890 | – | – | –
CC(C)Oc1ccc(CCNC(=O)N2CCC[C@H]2C(=O)N2CCCCC2)cc1 | 50.9 | 19.7 | 492 | – | – | –
O=C(Nc1nc2ccccc2[nH]1)c1cc(Cl)ccc1Cl | – | – | – | 0.55 (≈ 1.8 µM) | – | –
CCn1c(COC(=O)c2ccc(C)s2)nc2cc(S(=O)(=O)N3CCCCC3)ccc21 | – | 353 | 770 | 1.04 (≈ 2.32 µM) | – | –
CCN(c1ccc(C(C)C)cc1)S(=O)(=O)c1ccccc1 | 0.516 | – | – | 0.65 (≈ 2.14 µM) | – | –
COCC1(CNS(=O)(=O)c2ccc3[nH]cnc3c2)CCC1 | 32.8 | 16.2 | 860 | – | – | –
CN(C)C(=O)Cc1nc(-c2cc3cc(Cl)ccc3o2)cs1 | – | – | – | 2.41 (≈ 7.51 µM) | – | –
O=C(C1CCCN(c2ccccn2)C1)N1CCc2ccccc2C1 (centres undefined) | – | 172 | 1520 | 49.2 (≈ 153 µM) | – | –
CCc1cnc(CNC(=O)N2CCC(n3cncn3)CC2)s1 | 24.7 | ≤ 4.74 | ≤ 10.7 | 49.4 (≈ 154 µM) | – | –
Cc1cc(C(=O)Nc2c(C)nn(C(C)C)c2C)c2ccc(F)cc2n1 | 8.41 | 6.78 | 40.2 | 50.5 (≈ 148 µM) | – | –
CCCc1ncncc1C(=O)NCc1nncn1CCC | 14.7 | ≤ 4.74 | 38.8 | – | – | –
Cc1cc(C)n2ncc(C(=O)N[C@H]3CC[C@@H](C(C)C)CC3)c2n1 | 0.775 | – | – | – | – | –
Cn1cc(-c2nc(C(F)(F)F)c[nH]2)cn1 | – | – | – | 40.2 (≈ 186 µM) | – | –
CC(C)Oc1ccc(C2(C(=O)NC3CCS(=O)(=O)CC3)CCCC2)cc1 | 37.9 | 15.7 | 210 | – | – | –

SMILES | MDR1-MDCK efflux ratio | intrinsic clearance, human liver microsomes [mL/min/kg] | intrinsic clearance, rat liver microsomes [mL/min/kg] | aqueous solubility [µg/mL] | fraction unbound, human plasma | fraction unbound, rat plasma
Cc1csc(Nc2ccc(C#N)cc2)n1 | 0.419 | 201 | 620 | 38.2 (≈ 177 µM) | – | –
CC(C)(C)OC(=O)N1CCNC(=O)C1 | – | – | – | 34.3 (≈ 171 µM) | – | –
Cc1cc(-c2nncc3c(C(C)(C)C)c(OCc4ncnn4C)nn23)no1 | 8.04 | ≤ 4.74 | 83.6 | – | – | –
CC(C)N1CCN(CCCSc2ncc[nH]2)CC1 | – | ≤ 4.74 | 87.1 | – | – | –
O=C(NCCc1csc(N2CCCC2)n1)N1CCSCC1 | 4.26 | 61.9 | 882 | 52.6 (≈ 161 µM) | – | –
Cn1nc(CNC(=O)C2CCC2)c2ccccc21 | 0.662 | 12.5 | 147 | – | – | –
CC(=O)N[C@H]1/C(=N\OC(=O)Nc2ccccc2)O[C@H](CO)[C@H](O)[C@@H]1O | – | – | – | 66.4 (≈ 188 µM) | – | –
CC(C)n1nnnc1-c1ccc(N)cc1F | 0.63 | ≤ 4.74 | 40.2 | 23.5 (≈ 106 µM) | – | –
Cc1ccc(NC(=O)OC(C)(C)C)c2c1N(C(=O)[C@H]1CCCO1)CCC2 | 2.91 | 33.6 | 377 | 32.2 (≈ 89.3 µM) | – | –
Cc1ccc(NC(=O)CN2C(=O)CN(C)C2=O)cc1C | 3.8 | ≤ 4.74 | 62.9 | – | – | –
CO[C@H]1/C=C\C=C(/C)C(=O)NC2=CC(=O)C(NCCN(C)C)=C(C[C@@H](C)C[C@@H](OC)[C@@H](O)[C@@H](C)/C=C(\C)[C@H]1OC(N)=O)C2=O | 61.5 | 21 | 73.6 | – | – | –
CN(CC(=O)Nc1cc(F)cc(F)c1)c1ccnc(C(N)=O)c1 | 12.3 | ≤ 4.74 | 42.6 | 45.9 (≈ 143 µM) | – | –
Fc1ccccc1CNc1nc(-c2ccccc2)no1 | 0.605 | 24.5 | 131 | 3.51 (≈ 13 µM) | – | –
Cc1cccc(NC(=O)CSc2nncs2)c1 | 0.51 | 22.6 | 278 | – | – | –
N#Cc1cnc2ccccc2c1OCCO | – | 10.4 | 12.7 | – | – | –
Cc1cc(C)nc(N(C)CC(=O)NC2CC2)n1 | 0.884 | ≤ 4.74 | 23.1 | 34.9 (≈ 149 µM) | – | –
NC1(c2noc(-c3cccnc3)n2)CCCCCC1 | – | ≤ 4.74 | 444 | – | – | –
CC(=O)N1CCN(C(=O)[C@H]2CCCCN2C(=O)OC(C)(C)C)CC1 | 9.44 | ≤ 4.74 | ≤ 10.7 | 113 (≈ 333 µM) | – | –

Results, then the compound that gave them:

MDR1-MDCK efflux ratio | intrinsic clearance, human liver microsomes [mL/min/kg] | intrinsic clearance, rat liver microsomes [mL/min/kg] | aqueous solubility [µg/mL] | fraction unbound, human plasma | fraction unbound, rat plasma | SMILES
1.02 | 33.8 | 279 | 3.7 (≈ 9.78 µM) | – | – | O=C(Nc1nc2c(s1)COc1ccccc1-2)c1cnc(Cl)c(Cl)c1
0.679 | 49.2 | 663 | 15.9 (≈ 44.2 µM) | – | – | Cc1ccc(-c2nnc([C@H]3CCN(Cc4cc5ccccc5o4)C3)o2)cc1
23.3 | ≤ 4.74 | 32.4 | 25 (≈ 71.3 µM) | – | – | Cc1ccc(-c2cn(CC3CCN(Cc4c[nH]c(C)n4)CC3)nn2)cc1
– | ≤ 4.74 | 253 | – | – | – | COc1cc(C)cc(OC)c1-c1ccc(OCC(N)=O)cc1
0.617 | 633 | 4770 | – | – | – | Cc1ccc2nc(CN(C)Cc3cccc(Cl)c3Cl)cc(=O)n2c1
– | ≤ 4.74 | 38.2 | – | – | – | COc1cccc(CN2CCc3nc(-c4cnc(C)cn4)nc(O)c3C2)c1
0.995 | 61.5 | 878 | 3.82 (≈ 11 µM) | – | – | CNc1ncc(-c2nc(C3(c4ccccc4)CC3)nn2C(C)(C)C)cn1
0.596 | 140 | 901 | – | – | – | Cc1ccc(=O)n(CCOc2cc(F)cc(Br)c2)n1
0.91 | ≤ 4.74 | 27.5 | 54.9 (≈ 191 µM) | – | – | O=C1CCCN1C(=O)COc1cccc(-c2nnco2)c1
0.65 | – | – | 0.35 (≈ 1.06 µM) | – | – | Cc1cccc(CNc2cccc3c2CCN(S(C)(=O)=O)C3)c1
2.6 | 6.01 | 55.5 | – | – | – | CC(C)n1cnnc1-c1cccc(N2Cc3ccc(Br)cc3C2=O)n1
10.7 | 116 | 1040 | 59 (≈ 158 µM) | – | – | Cc1cnc(-c2nc(NCc3ccccn3)ncc2-c2onc(C)c2C)cn1
0.752 | 20.5 | 157 | 34.6 (≈ 130 µM) | – | – | Cc1noc(NCc2cccc(-c3cccnc3)c2)n1
0.493 | 27.7 | 790 | 45.4 (≈ 139 µM) | – | – | Cc1ccc(CN2CC[C@H](c3nnc(-c4ccccc4F)o3)C2)o1
0.69 | 200 | 1640 | 37.8 (≈ 108 µM) | – | – | O=C(NCC1=CCCN(Cc2cc(F)ccc2Cl)C1)c1ccco1
– | – | – | 0.39 (≈ 1.06 µM) | – | – | COc1cc(OC)cc(C(=O)Nc2nc3c(s2)COc2ccccc2-3)c1
32.9 | ≤ 4.74 | 28.8 | 57.1 (≈ 158 µM) | – | – | Cc1ccc2nc3c(c(C(=O)NCc4nnc5n4CCC5)c2c1)CCCC3
2.18 | 270 | 2180 | 48.9 (≈ 138 µM) | – | – | Cc1cc(C(=O)N2CCOC(C)(C)C2)cc(C)c1OCc1cccnc1
1.58 | 16.6 | 89.2 | 10.8 (≈ 34.7 µM) | – | – | Cn1ncc2c1CCc1sc(NC(=O)c3cccnc3)nc1-2
8.42 | 6 | 27.7 | 62.2 (≈ 177 µM) | 0.604 | 0.893 | Cc1cc(F)ccc1C1C(=O)NCCN1C(=O)c1ccc2nccn2c1 (centres undefined)
0.675 | ≤ 4.74 | 16.2 | 40.8 (≈ 132 µM) | – | – | CC1CCN(Cc2ccc(NC(=O)c3ccccn3)cc2)CC1
0.305 | – | – | 0.12 (≈ 0.37 µM) | – | – | Fc1ccc(Nc2nc(N3CCCCC3)c3nccnc3n2)cc1
2.19 | 58.1 | 477 | – | – | – | Cc1cc(C(=O)NCC2CCN(c3ccc4ccccc4n3)CC2)cnc1C
9.33 | 16.5 | 775 | 22.9 (≈ 70 µM) | – | – | CNC(=O)c1cccc(Cn2nnc(-c3ccccc3Cl)n2)c1
